Patent US8178506B2, “Oligomeric compounds and compositions for use in modulation of small non-coding RNAs” (Regulus Therapeutics Inc., priority 2003, dated 2012)
In the oligonucleotide strings, read from the 5' end, every base follows the letter of its sugar. An asterisk marks phosphorothioate; unmarked linkages are phosphodiester. Other units and linkages are bracketed, terminal groups are in braces. A string of capitals states the bases alone. e = 2'-O-(2-methoxyethyl) (MOE); [5mC] = 5-methylcytosine; d = 2'-deoxy (DNA)

Tested on: mir-15a pri-miRNA
Assay: mir-15a pri-miRNA expression in HepG2 cells (real-time RT-PCR)
Assay type: cell-based, human
Settings: for Expression of mir-15a pri-miRNA (% UTC): HepG2 cells, 100 nM, real-time RT-PCR; for expression of the mir-15a pri-miRNA molecule: HepG2, 100 nM
Description: Using the real-time RT-PCR methods described in Example 19, the expression levels of the mir-15a pri-miRNA were compared in HepG2 cells treated with a nested series of chimeric gapmer oligomeric compounds, targeting and spanning the entire length of the mir-15a pri-miRNA; these compounds are shown in Table 45, below. […] All cytidine residues are 5-methylcytidines. Using the transfection methods described herein, HepG2 cells were treated with 100 nM of each of these gapmer oligomeric compounds. Total RNA was isolated from HepG2 cells by lysing cells in 1 mL TRIZOL™ (Invitrogen) using the manufacturer's recommended protocols. Real-time RT-PCR analysis was performed using a primer/probe set specific for the mir-15a pri-miRNA molecule to assess the effects of these compounds on expression of the mir-15a pri-miRNA molecule. ISIS 339317 ([…]; SEQ ID NO.: 885) was used as the forward primer, ISIS 339318 (TGGCCTGCACCTTTTCAAA; SEQ ID NO.: 886) was used as the reverse primer, and ISIS 339319 ([…]; SEQ ID NO.: 887) was used as the probe. Total RNA was quantified using RiboGreen™ RNA quantification reagent (Molecular Probes, Inc. Eugene, Oreg.), expression levels observed for each target are normalized to 5.8S rRNA, and values are expressed relative to the untreated control. Inhibition of expression of the mir15a pri-miRNA by these gapmer oligomeric compounds is expressed as a percentage of RNA levels in untreated control cells.

| Substance | Expression of mir-15a pri-miRNA (% UTC) | expression of the mir-15a pri-miRNA molecule |
| --- | --- | --- |
| 347964 (eT*eA*eT*eA*eA*d[5mC]*dA*dT*dT*dG*dA*dT*dG*dT*dA*eA*eT*eA*eT*eG; antisense) [compound 347964] | 13.7 |  |
| 347965 (eG*e[5mC]*eT*eA*e[5mC]*dT*dT*dT*dA*d[5mC]*dT*d[5mC]*d[5mC]*dA*dA*eG*eG*eT*eT*eT; antisense) [compound 347965] | 86.0 |  |
| 347966 (eT*eG*e[5mC]*eT*eA*d[5mC]*dT*dT*dT*dA*d[5mC]*dT*d[5mC]*d[5mC]*dA*eA*eG*eG*eT*eT; antisense) [compound 347966] | 39.2 |  |
| 347967 (eG*e[5mC]*eA*e[5mC]*e[5mC]*dT*dT*dT*dT*d[5mC]*dA*dA*dA*dA*dT*e[5mC]*e[5mC]*eA*e[5mC]*eA) [compound 347967] | 152.3 |  |
| 347968 (e[5mC]*e[5mC]*eT*eG*e[5mC]*dA*d[5mC]*d[5mC]*dT*dT*dT*dT*d[5mC]*dA*dA*eA*eA*eT*e[5mC]*e[5mC]; antisense) [compound 347968] | 8.4 |  |
| 347969 (eT*eG*eG*e[5mC]*e[5mC]*dT*dG*d[5mC]*dA*d[5mC]*d[5mC]*dT*dT*dT*dT*e[5mC]*eA*eA*eA*eA; antisense) [compound 347969] | 39.5 |  |
| 347970 (eA*eT*eA*eT*eG*dG*d[5mC]*d[5mC]*dT*dG*d[5mC]*dA*d[5mC]*d[5mC]*dT*eT*eT*eT*e[5mC]*eA; antisense) [compound 347970] | 2.2 |  |
| 347971 (eA*e[5mC]*eA*eA*eT*dA*dT*dG*dG*d[5mC]*d[5mC]*dT*dG*d[5mC]*dA*e[5mC]*e[5mC]*eT*eT*eT; antisense) [compound 347971] | 92.8 |  |
| 347972 (eA*eG*e[5mC]*eA*e[5mC]*dA*dA*dT*dA*dT*dG*dG*d[5mC]*d[5mC]*dT*eG*e[5mC]*eA*e[5mC]*e[5mC]; antisense) [compound 347972] | 98.6 |  |
| 347973 (eG*eG*e[5mC]*eA*eG*d[5mC]*dA*d[5mC]*dA*dA*dT*dA*dT*dG*dG*e[5mC]*e[5mC]*eT*eG*e[5mC]) [compound 347973] | 143.3 |  |
| 347974 (eT*eG*eA*eG*eG*d[5mC]*dA*dG*d[5mC]*dA*d[5mC]*dA*dA*dT*dA*eT*eG*eG*e[5mC]*e[5mC]; antisense) [compound 347974] | 98.1 |  |
| 347975 (eT*eT*eT*eT*eG*dA*dG*dG*d[5mC]*dA*dG*d[5mC]*dA*d[5mC]*dA*eA*eT*eA*eT*eG; antisense) [compound 347975] | 9.2 |  |
| 347976 (eT*eA*eT*eT*eT*dT*dT*dG*dA*dG*dG*d[5mC]*dA*dG*d[5mC]*eA*e[5mC]*eA*eA*eT; antisense) [compound 347976] | 73.0 |  |
| 347977 (eT*eT*eG*eT*eA*dT*dT*dT*dT*dT*dG*dA*dG*dG*d[5mC]*eA*eG*e[5mC]*eA*e[5mC]) [compound 347977] | 111.3 |  |
| 347978 (eT*e[5mC]*e[5mC]*eT*eT*dG*dT*dA*dT*dT*dT*dT*dT*dG*dA*eG*eG*e[5mC]*eA*eG; antisense) [compound 347978] | 51.1 |  |
| 347979 (eA*eG*eA*eT*e[5mC]*d[5mC]*dT*dT*dG*dT*dA*dT*dT*dT*dT*eT*eG*eA*eG*eG; antisense) [compound 347979] | 74.9 |  |
| 347980 (eA*eG*eA*eT*e[5mC]*dA*dG*dA*dT*d[5mC]*d[5mC]*dT*dT*dG*dT*eA*eT*eT*eT*eT; antisense) [compound 347980] | 3.6 |  |
| 347982 (eT*eT*e[5mC]*eA*eG*dA*dA*dG*dA*dT*d[5mC]*dA*dG*dA*dT*e[5mC]*e[5mC]*eT*eT*eG; antisense) [compound 347982] | 82.2 |  |
| 347983 (eA*eA*eA*eT*eA*dT*dA*dT*dT*dT*dT*d[5mC]*dT*dT*d[5mC]*eA*eG*eA*eA*eG; antisense) [compound 347983] | 13.0 |  |
| ISIS 347964: 5-10-5 2′-MOE gapmer PS; targets mir-15a pri-miRNA (antisense eT*eA*eT*eA*eA*d[5mC]*dA*dT*dT*dG*dA*dT*dG*dT*dA*eA*eT*eA*eT*eG) |  | significant inhibition of expression of the mir-15a pri-miRNA molecule |
| ISIS 347966: 5-10-5 2′-MOE gapmer PS; targets mir-15a pri-miRNA (antisense eT*eG*e[5mC]*eT*eA*d[5mC]*dT*dT*dT*dA*d[5mC]*dT*d[5mC]*d[5mC]*dA*eA*eG*eG*eT*eT) |  | significant inhibition of expression of the mir-15a pri-miRNA molecule |
| ISIS 347967: 5-10-5 2′-MOE gapmer PS; targets mir-15a pri-miRNA (antisense eG*e[5mC]*eA*e[5mC]*e[5mC]*dT*dT*dT*dT*d[5mC]*dA*dA*dA*dA*dT*e[5mC]*e[5mC]*eA*e[5mC]*eA) |  | stimulate an increase in expression levels of the mir-15a pri-miRNA |
| ISIS 347968: 5-10-5 2′-MOE gapmer PS; targets mir-15a pri-miRNA (antisense e[5mC]*e[5mC]*eT*eG*e[5mC]*dA*d[5mC]*d[5mC]*dT*dT*dT*dT*d[5mC]*dA*dA*eA*eA*eT*e[5mC]*e[5mC]) |  | significant inhibition of expression of the mir-15a pri-miRNA molecule |
| ISIS 347970: 5-10-5 2′-MOE gapmer PS; targets mir-15a pri-miRNA (antisense eA*eT*eA*eT*eG*dG*d[5mC]*d[5mC]*dT*dG*d[5mC]*dA*d[5mC]*d[5mC]*dT*eT*eT*eT*e[5mC]*eA) |  | significant inhibition of expression of the mir-15a pri-miRNA molecule |
| ISIS 347973: 5-10-5 2′-MOE gapmer PS; targets mir-15a pri-miRNA (antisense eG*eG*e[5mC]*eA*eG*d[5mC]*dA*d[5mC]*dA*dA*dT*dA*dT*dG*dG*e[5mC]*e[5mC]*eT*eG*e[5mC]) |  | stimulate an increase in expression levels of the mir-15a pri-miRNA |
| ISIS 347975: 5-10-5 2′-MOE gapmer PS; targets mir-15a pri-miRNA (antisense eT*eT*eT*eT*eG*dA*dG*dG*d[5mC]*dA*dG*d[5mC]*dA*d[5mC]*dA*eA*eT*eA*eT*eG) |  | significant inhibition of expression of the mir-15a pri-miRNA molecule |
| ISIS 347977: 5-10-5 2′-MOE gapmer PS; targets mir-15a pri-miRNA (antisense eT*eT*eG*eT*eA*dT*dT*dT*dT*dT*dG*dA*dG*dG*d[5mC]*eA*eG*e[5mC]*eA*e[5mC]) |  | stimulate an increase in expression levels of the mir-15a pri-miRNA |
| ISIS 347980: 5-10-5 2′-MOE gapmer PS; targets mir-15a pri-miRNA (antisense eA*eG*eA*eT*e[5mC]*dA*dG*dA*dT*d[5mC]*d[5mC]*dT*dT*dG*dT*eA*eT*eT*eT*eT) |  | significant inhibition of expression of the mir-15a pri-miRNA molecule |
| ISIS 347983: 5-10-5 2′-MOE gapmer PS; targets mir-15a pri-miRNA (antisense eA*eA*eA*eT*eA*dT*dA*dT*dT*dT*dT*d[5mC]*dT*dT*d[5mC]*eA*eG*eA*eA*eG) |  | significant inhibition of expression of the mir-15a pri-miRNA molecule |
